# Experimental data published in ChEMBL document CHEMBL6078714, “Discovery of N-Trifluoromethylated Noscapines as Novel and Potent Agents for the Treatment of Glioblastoma” (J Med Chem, 2025).
# Activity calls are given as the source filed them. No cut-off for these calls is given here.
# Key:
# U-87 MG = test: Antiproliferative activity against human U-87 MG cells assessed as inhibition of cell proliferation incubated for 72 hrs by CCK8 assay; format: functional, cell-based, U-87MG ATCC
# U-118-MG [1] = test: Inhibition of cell migration in human U-118-MG cells incubated for 24 hrs by transwell assay; format: functional, cell-based; conditions: dose 0.1-10 µM
# U-118-MG [2] = test: Cell cycle arrest in human U-118-MG cells assessed as accumulation of cells at S phase at 30 uM incubated for 24 hrs by flow cytometric analysis (reference value: 10.7 %); format: functional
# [3] = Half-life in Sprague-Dawley rat at 5 mg/kg, ip; format: ADME, organism-based; conditions: in vivo
# [4] = Ratio of drug concentration in Sprague-Dawley rat brain to plasma at 5 mg/kg, ip measured after 0.5 hrs; format: ADME, organism-based; conditions: read-out: BPR
# Tubulin (Homo sapiens) = Tubulin (Homo sapiens) (UniProt P68371+Q9H4B7+P0DPH7+P68366+Q13509+Q71U36+P04350+Q3ZCM7+P07437+P68363+Q9BQE3+Q6PEY2+Q13885+Q9BVA1+Q9BUF5); test: Disruption of tubulin polymerization in human U-118-MG cells at 3 to 20 uM by DAPI staining based immunofluorescence analysis; format: cell-based; conditions: dose 3-20 µM
# U-118-MG [5] = test: Cell cycle arrest in human U-118-MG cells assessed as accumulation of cells at G1 phase at 30 uM incubated for 24 hrs by flow cytometric analysis (reference value: 56.2 %); format: functional
# [6] = Toxicity in male BALB/c nude mouse xenografted with human U-118-MG cells assessed as effect on serum ALT level at 2.5 to 10 mg/kg, ip administered daily for 4 weeks; format: organism-based; conditions: in vivo, 672 h, dose 2.5-10 mg/kg
# [7] = Drug distribution in Sprague-Dawley rat plasma at 5 mg/kg, ip measured after 0.5 hrs; format: ADME, organism-based
# [8] = Cmax in Sprague-Dawley rat at 5 mg/kg, ip; format: ADME, organism-based; conditions: in vivo
# U-118-MG [9] = test: Antitumor activity against human U-118-MG cells xenografted in male BALB/c nude mouse assessed as tumor growth inhibition at 5 mg/kg, ip administered daily for 4 weeks relative to control; format: functional; conditions: 672 h, read-out: TGI
# U-118-MG [10] = test: Cell cycle arrest in human U-118-MG cells assessed as accumulation of cells at G1 phase at 3 uM incubated for 24 hrs by flow cytometric analysis (reference value: 56.2 %); format: functional
# [11] = Observed clearance in Sprague-Dawley rat at 5 mg/kg, ip; format: ADME, organism-based; conditions: in vivo
# U-118-MG [12] = test: Cell cycle arrest in human U-118-MG cells assessed as accumulation of cells at S phase at 20 uM incubated for 24 hrs by flow cytometric analysis (reference value: 10.7 %); format: functional
# U-118-MG [13] = test: Cell cycle arrest in human U-118-MG cells assessed as accumulation of cells at G2 phase at 20 uM incubated for 24 hrs by flow cytometric analysis (reference value: 30.6 %); format: functional
# [14] = Drug distribution in Sprague-Dawley rat brain at 5 mg/kg, ip measured after 0.5 hrs; format: ADME, organism-based; conditions: read-out: Ct
# [15] = Stability of compound in 0.1M HCl solution at pH 1.0 assessed as parent compound remaining measured after 48 hrs by 1H NMR analysis; format: physicochemical; conditions: read-out: Stability
# [16] = Observed volume of distribution in Sprague-Dawley rat at 5 mg/kg, ip; format: ADME, organism-based; conditions: in vivo
# U-118-MG [17] = test: Antitumor activity against human U-118-MG cells xenografted in male BALB/c nude mouse assessed as suppression of tumor growth at 2.5 to 10 mg/kg, ip administered daily for 4 weeks; format: functional, organism-based; conditions: dose 2.5-10 mg/kg
# [18] = Toxicity in male BALB/c nude mouse xenografted with human U-118-MG cells assessed as effect on serum urea level at 2.5 to 10 mg/kg, ip administered daily for 4 weeks; format: organism-based; conditions: in vivo, 672 h, dose 2.5-10 mg/kg
# [19] = Toxicity in male BALB/c nude mouse xenografted with human U-118-MG cells assessed as effect on serum creatinine level at 2.5 to 10 mg/kg, ip administered daily for 4 weeks; format: organism-based; conditions: in vivo, 672 h, dose 2.5-10 mg/kg
# U-118-MG [20] = test: Cell cycle arrest in human U-118-MG cells assessed as accumulation of cells at G2 phase at 10 uM incubated for 24 hrs by flow cytometric analysis (reference value: 30.6 %); format: functional
# U-118-MG [21] = test: Cell cycle arrest in human U-118-MG cells assessed as accumulation of cells at G1 phase at 20 uM incubated for 24 hrs by flow cytometric analysis (reference value: 56.2 %); format: functional
# U-118-MG [22] = test: Cell cycle arrest in human U-118-MG cells assessed as accumulation of cells at G2 phase at 30 uM incubated for 24 hrs by flow cytometric analysis (reference value: 30.6 %); format: functional
# U-118-MG [23] = test: Cell cycle arrest in human U-118-MG cells assessed as accumulation of cells at S phase at 10 uM incubated for 24 hrs by flow cytometric analysis (reference value: 10.7 %); format: functional
# [24] = AUC (0 to 24 hrs) in Sprague-Dawley rat at 5 mg/kg, ip; format: ADME, organism-based; conditions: in vivo
# [25] = Toxicity in male BALB/c nude mouse xenografted with human U-118-MG cells assessed as metastasis in heart at 2.5 to 10 mg/kg, ip administered daily for 4 weeks by H and E staining based analysis; format: organism-based; conditions: in vivo, 672 h, dose 2.5-10 mg/kg
# [26] = Permeability of compound incubated for 12 hrs by PAMPA; format: ADME; conditions: read-out: permeability
# U-118-MG [27] = test: Inhibition of cell migration in human U-118-MG cells at 0.1 to 10 uM incubated for 24 hrs by microscopy based wound healing assay; format: functional; conditions: dose 0.1-10 µM
# [28] = Toxicity in male BALB/c nude mouse xenografted with human U-118-MG cells assessed as metastasis in spleen at 2.5 to 10 mg/kg, ip administered daily for 4 weeks by H and E staining based analysis; format: organism-based; conditions: in vivo, 672 h, dose 2.5-10 mg/kg
# [29] = Drug distribution in Sprague-Dawley rat plasma at 5 mg/kg, ip measured after 4 hrs; format: ADME, organism-based
# [30] = Toxicity in male BALB/c nude mouse xenografted with human U-118-MG cells assessed as effect on serum AST level at 2.5 to 10 mg/kg, ip administered daily for 4 weeks; format: organism-based; conditions: in vivo, 672 h, dose 2.5-10 mg/kg
# [31] = Stability of compound in sodium carbonate buffer at pH 10 measured after 48 hrs by 1H NMR analysis; format: physicochemical; conditions: pH 10, 48 h
# [32] = Tmax in Sprague-Dawley rat at 5 mg/kg, ip; format: ADME, organism-based; conditions: in vivo
# [33] = Stability of compound in sodium phosphate buffer at pH 7.4 measured after 48 hrs by 1H NMR analysis; format: physicochemical; conditions: pH 7.4, 48 h
# [34] = Drug distribution in Sprague-Dawley rat brain at 5 mg/kg, ip measured after 4 hrs; format: ADME, organism-based; conditions: read-out: Ct
# [35] = Toxicity in male BALB/c nude mouse xenografted with human U-118-MG cells assessed as metastasis in kidney at 2.5 to 10 mg/kg, ip administered daily for 4 weeks by H and E staining based analysis; format: organism-based; conditions: in vivo, 672 h, dose 2.5-10 mg/kg
# [36] = Ratio of drug concentration in Sprague-Dawley rat brain to plasma at 5 mg/kg, ip measured after 4 hrs; format: ADME, organism-based; conditions: read-out: BPR
# U-118-MG [37] = test: Antiproliferative activity against human U-118- MG cells assessed as inhibition of cell proliferation by crystal violet staining based analysis; format: functional; conditions: dose 10-40 µM
# U-118-MG [38] = test: Antiproliferative activity against human U-118-MG cells assessed as inhibition of cell proliferation incubated for 72 hrs by CCK8 assay; format: functional, cell-based
compound,measurement,setting,value
COc1ccc2c(c1OC)C(=O)O[C@@H]2[C@H]1c2c(c(Br)c3c(c2OC)OCO3)CCN1C(F)(F)F,IC50,U-87 MG,7.46 µM
same,inhibition,U-118-MG [1],Dose-dependent-effect
same,Activity,U-118-MG [2],14.8%
same,half-life,[3],5.64 h
same,Kp at 0.5 h,[4],0.349
same,Activity,Tubulin (Homo sapiens),Active
same,Activity,U-118-MG [5],29.5%
same,Activity,[6],Non-toxic
same,concentration at 0.5 h,[7],99.6 ng/mL
same,Cmax,[8],152 ng/mL
same,inhibition in vivo at 5 mg/kg,U-118-MG [9],37.7%
same,Activity,U-118-MG [10],55.7%
same,CL,[11],135 mL/min/kg
same,Activity,U-118-MG [12],9.68%
same,Activity,U-118-MG [13],40%
same,concentration at 0.5 h,[14],35.4 ng/g
same,remaining at 48 h,[15],86%
same,Vd,[16],65.2 L/kg
same,Activity,U-118-MG [17],Active
same,Activity,[18],Non-toxic
same,Activity,[19],Non-toxic
same,Activity,U-118-MG [20],32.1%
same,Activity,U-118-MG [21],48.3%
same,Activity,U-118-MG [22],52.2%
same,Activity,U-118-MG [23],9.24%
same,AUC,[24],661 ng·h/mL
same,Activity,[25],Non-toxic
same,Papp at 12 h,[26],12.1 ×10⁻⁶ cm/s
same,inhibition,U-118-MG [27],Active
same,Activity,[28],Non-toxic
same,concentration at 4 h,[29],69.4 ng/mL
same,Activity,[30],Non-toxic
same,Stability,[31],Stable
same,Tmax,[32],0.5 h
same,Stability,[33],Stable
same,concentration at 4 h,[34],34.5 ng/g
same,Activity,[35],Non-toxic
same,Kp at 4 h,[36],0.517
same,Activity,U-118-MG [37],Dose-dependent-effect
same,IC50,U-118-MG [38],1.55 µM
